Patent publication US7494714B2, “Surfaces that resist the adsorption of biological species” (President & Fellows of Harvard College, priority 2000, dated 2009)
Where two headings read alike, the source gives them in different places.

Columns and labels:
lysozyme = lysozyme (Gallus gallus, UniProt P00698); assay: SPR adsorption of lysozyme to SAMs / grafted polymer films; format: binding; settings: for % Lysoff (percent decrease in adsorbed protein during 10 minute PBS wash) / dR/dton lysozyme (maximum initial rate of adsorption) / % MLlys 3 min / % MLlys 30 min: mixed SAM —CONRR′/—CO2H; for % MLlys 3 min: 1 mg/mL lysozyme flowed 3 min; for % MLlys 30 min: 1 mg/mL lysozyme flowed 30 min
Chain of lysozyme (P00698 19-147): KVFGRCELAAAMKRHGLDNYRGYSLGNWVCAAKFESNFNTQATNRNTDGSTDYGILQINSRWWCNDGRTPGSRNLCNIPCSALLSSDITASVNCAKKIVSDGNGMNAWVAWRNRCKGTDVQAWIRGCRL

[1] = Contact angle of deionized water under cyclooctane; format: physicochemical
fibrinogen = biological target: T1, fibrinogen (Bos taurus, UniProt P02672+P02676+P12799); assay: SPR adsorption of fibrinogen to SAMs / grafted polymer films; format: binding, bovine; settings: for % Fiboff (percent decrease in adsorbed protein during 10 minute PBS wash) / dR/dton fibrinogen (maximum initial rate of adsorption) / % MLfib 3 min / % MLfib 30 min: mixed SAM —CONRR′/—CO2H; for % MLfib 3 min: 1 mg/mL fibrinogen flowed 3 min, relative to —CONH(CH2)10CH3/—CO2H SAM; for % MLfib 30 min: 1 mg/mL fibrinogen flowed 30 min
T1 sequence (P02672 20-615): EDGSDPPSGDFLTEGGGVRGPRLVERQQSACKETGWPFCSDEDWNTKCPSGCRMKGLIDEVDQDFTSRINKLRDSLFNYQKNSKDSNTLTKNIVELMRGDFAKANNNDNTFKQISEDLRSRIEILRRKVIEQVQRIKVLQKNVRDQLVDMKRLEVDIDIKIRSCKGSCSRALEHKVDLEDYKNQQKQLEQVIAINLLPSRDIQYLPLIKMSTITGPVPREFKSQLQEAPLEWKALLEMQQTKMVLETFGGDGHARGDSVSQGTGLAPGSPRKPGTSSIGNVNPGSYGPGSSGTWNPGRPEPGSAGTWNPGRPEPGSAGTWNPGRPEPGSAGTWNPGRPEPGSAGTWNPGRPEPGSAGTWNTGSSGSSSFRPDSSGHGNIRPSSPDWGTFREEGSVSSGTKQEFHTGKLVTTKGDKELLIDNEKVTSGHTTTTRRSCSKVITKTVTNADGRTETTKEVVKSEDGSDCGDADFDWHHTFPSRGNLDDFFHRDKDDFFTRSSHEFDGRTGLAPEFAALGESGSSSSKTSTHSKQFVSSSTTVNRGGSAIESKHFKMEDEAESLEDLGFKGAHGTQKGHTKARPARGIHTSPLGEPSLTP
T1 sequence (P02676 1-468): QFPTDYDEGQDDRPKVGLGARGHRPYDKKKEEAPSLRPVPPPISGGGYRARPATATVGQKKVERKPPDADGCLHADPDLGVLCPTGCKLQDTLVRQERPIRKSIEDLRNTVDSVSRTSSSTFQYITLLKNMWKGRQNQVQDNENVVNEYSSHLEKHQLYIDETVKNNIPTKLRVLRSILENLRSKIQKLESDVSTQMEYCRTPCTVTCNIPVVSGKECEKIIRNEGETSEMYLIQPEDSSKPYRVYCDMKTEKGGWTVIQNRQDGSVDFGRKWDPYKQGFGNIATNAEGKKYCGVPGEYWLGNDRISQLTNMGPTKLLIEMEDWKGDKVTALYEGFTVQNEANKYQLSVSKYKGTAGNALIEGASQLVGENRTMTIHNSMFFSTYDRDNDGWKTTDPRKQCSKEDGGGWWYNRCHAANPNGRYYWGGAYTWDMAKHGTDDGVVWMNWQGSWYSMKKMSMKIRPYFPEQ
T1 sequence (P12799 25-444): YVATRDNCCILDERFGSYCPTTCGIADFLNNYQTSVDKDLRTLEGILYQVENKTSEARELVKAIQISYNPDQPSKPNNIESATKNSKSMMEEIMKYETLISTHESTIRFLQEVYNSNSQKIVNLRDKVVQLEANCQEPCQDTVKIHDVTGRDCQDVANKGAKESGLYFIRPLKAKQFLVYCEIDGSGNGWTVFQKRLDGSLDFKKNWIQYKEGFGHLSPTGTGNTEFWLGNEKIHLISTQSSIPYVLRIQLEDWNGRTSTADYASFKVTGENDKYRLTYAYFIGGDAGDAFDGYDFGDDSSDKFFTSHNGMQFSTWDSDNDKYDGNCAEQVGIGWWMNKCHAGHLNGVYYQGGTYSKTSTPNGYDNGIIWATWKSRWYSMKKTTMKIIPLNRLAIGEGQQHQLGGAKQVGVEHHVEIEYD

[2] = biological target: T2, Carbonic anhydrase II (bovine) (Bos taurus, UniProt P00921); assay: SPR binding of CA to immobilised benzene sulfonamide ligands
T2 construct: purchased Sigma (St. Louis, Mo.)
T2 sequence (P00921 whole entry): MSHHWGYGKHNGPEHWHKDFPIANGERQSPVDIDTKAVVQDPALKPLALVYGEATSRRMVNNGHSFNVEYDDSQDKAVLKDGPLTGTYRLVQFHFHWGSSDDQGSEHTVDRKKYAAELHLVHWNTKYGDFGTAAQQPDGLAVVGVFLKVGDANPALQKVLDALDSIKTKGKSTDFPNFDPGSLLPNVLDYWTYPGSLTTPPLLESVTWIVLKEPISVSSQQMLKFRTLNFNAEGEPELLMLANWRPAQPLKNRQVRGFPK
Description: Curve 1: CA (5 μM) with a mixture of proteins (each at 0.2 mg/mL) including fibrinogen, RNase, lysozyme, and myoglobin; Curve 2: CA (5 μM); Curve 3: a mixture of proteins as in 1 without CA; Curve 4: CA (5 μM) with 1 mM soluble benzenesulfonamide ligand.

CA = CA (Bos taurus, UniProt P00921); settings: soluble ligand; cited from earlier work
Chain of CA (P00921 whole entry): as above

[3] = system: mixture of fibrinogen, myoglobin, lysozyme, and RNase; assay: SPR nonspecific adsorption from a mixture of proteins; format: binding; settings: mixed SAM presenting 13 and —CONH(CH2CH2O)6H/—CO2H groups
[4] = lysozyme, single-component SAMs (a) and mixed SAMs (b)
[5] = fibrinogen, single-component SAMs (a) and mixed SAMs (b)

| Molecule | % Lysoff (percent decrease in adsorbed protein during 10 minute PBS wash) (lysozyme) [%] | dR/dton lysozyme (maximum initial rate of adsorption) (lysozyme) [RU/sec] | % MLlys 3 min (lysozyme) [%] | % MLlys 30 min (lysozyme) [%] | θco sessile ([1]; mixed SAM) [degrees] | % Fiboff (percent decrease in adsorbed protein during 10 minute PBS wash) (fibrinogen) [%] | dR/dton fibrinogen (maximum initial rate of adsorption) (fibrinogen) [RU/sec] | % MLfib 3 min (fibrinogen) [%] | % MLfib 30 min (fibrinogen) [%] | also measured |
| --- | --- | --- | --- | --- | --- | --- | --- | --- | --- | --- |
| CNCCN(C)C | 300 ± 30 | 400 ± 200 | 1.9 ± 0.1 | 14 ± 2 | 49 | 13 ± 2 | 140 ± 40 | 23 ± 4 | 40 ± 2 |  |
| CNCCN(C)C(=O)N(C)C | 160 ± 10 | 670 ± 50 | 2.1 ± 0.2 | 11 ± 0.5 | 62 | 15 ± 2 | 60 ± 30 | 5.9 ± 0.2 | 25 ± 1 |  |
| CNCCN(C)P(=O)(N(C)C)N(C)C | 660 ± 15 | 70 ± 30 | 0.2 ± 0.2 | 0.3 ± 0.2 | 63 | 19 ± 1 | 120 ± 20 | 0.8 ± 0.1 | 4.3 ± 0.6 |  |
| NCCOCCOCCO [Entry 3b, H(OCH2CH2)3NH2, reference compound] |  |  |  |  |  |  |  |  |  | % ML 3 min (lysozyme; lysozyme, footnote b (30 minutes), single-component SAMs (a) and mixed SAMs (b)): 1%; % ML 3 min (lysozyme; [4]): 1%; dR/dt on (lysozyme; [4]): 85 RU/sec; θco sessile [1]: 50 degrees; % ML 30 min (fibrinogen; [5]): 2%; dR/dt on (fibrinogen; [5]): 30 RU/sec; % ML 3 min (fibrinogen; fibrinogen, single-component SAMs (a, RSH) and mixed SAMs (b, RNH2)): 1%; % Fib off (fibrinogen; single-component SAMs (a) and mixed SAMs (b)): 11% |
| NC(CCCO)(CCCO)CCCO [H2NC(CH2CH2CH2OH)3] | 140 ± 2 | 1400 ± 110 | 30 ± 0.6 | 73 ± 5 | 70 | 14 ± 0.5 | 350 ± 220 | 34 ± 2.2 | 57 ± 0.2 |  |
| COC(=O)CNC(=O)c1ccc(S(N)(=O)=O)cc1 [benzene sulfonamide 14, H2NSO2C6H4—CONHCH2CO2CH3, reference compound] |  |  |  |  |  |  |  |  |  | competitive inhibition of binding of CA to the mixed SAM presenting 13 ([2]; 1 mM added to the CA-containing solution): completely inhibited; Kd (CA): 63 µM |
| NCCOCCOCCOCCOCCOCCOCC(=O)NCCCCCCNC(=O)c1ccc(S(N)(=O)=O)cc1 [compound 13, [6-(2-{2-[2-(2-{2-[2-(2-Amino-ethoxy)-ethoxy]-ethoxy}-ethoxy)-ethoxy]-ethoxy}-ethanoylamino)-hexyl]-4-sulfamoyl-benzamide] |  |  |  |  |  |  |  |  |  | nonspecific adsorption of protein [3]: did not adsorb a detectable amount of protein; reversibility of binding of CA ([2]; CA 5 μM in PBS, mixed SAM presenting 13): > 90%; kon ([2]; SPR, CA 5 μM in PBS, surfaces of this work (entry 4, LPEI entries 6-9)): 13000 M^-1S^-1; koff ([2]; SPR, surfaces of this work (entry 4, LPEI entries 6-9)): 0.0054 S^-1 |
| H(CH3)NCH2CH(OCH3)2 | 190 ± 2 | 740 ± 300 | 4.6 ± 2 | 19 ± 5 | 70 | 15 ± 4 | 510 ± 400 | 16 ± 2 | 36 ± 1 |  |
